Test results reported in patent US20030166598A1, “Medicines for treating tumoral pathologies containing the ro5-4864 compound and an apoptosis-inducing agent” (priority 2000, published 2003).

Legend:
Jurkat (lymphoid T) = assay: Quantification of apoptosis in Jurkat cells cultured with anti-Fas receptor antibody CH11 and PBR ligands; format: cell-based, human; settings: for potentiation of the apoptotic effect of the CH11 anti-FasR antibody: FIGS. 1A and 1B; for proportion of subdiploid (apoptotic) cells: ligand at 60 μM in combination with CH11 anti-FasR antibody
Procedure: (§1) The human lines Jurkat (lymphoid T), SHEP (neuroblastoma) transfected with a control vector or with a bcl-2 or bcl-XL vector, 143N2 (osteosarcoma) and SNB79 (glioblastoma) were cultured in DMEM or RPMI 1640 (Sigma Chemical Co., St Louis, Mo.) supplemented with FCS 10% (Dutscher, Brumath, France), penicillin G (10^2 IU/mI)+streptomycin (50 μg/ml) (Sigma) and L-glutamine ([…], Sigma).
(§2) The cells were cultured in the presence of anti-Fas receptor antibody CH11 (1 μg/ml; Immunotech, Marseilles, France) concomitantly or after exposure to RO5-4864 (BioBlock Scientific, Illkirch, France), diazepam (Roche, Neuilly sur Seine, France), or PK11195 (BioBlock), at various concentrations.
Lipophilic fluorochrome DiOC6(3) (Molecular Probes, Eugene, Oreg.) was used for measuring the membrane potential of the mitochondria (Δψm). Briefly, the cells were incubated for 15 min at 37° C. in the presence of 40 nM of DiOC6(3), with immediate analysis of the incorporation of fluorescence on a type Epics Profile II cytofluorometer (Coulter, Miami, Fla.). Hydroethydine (HE) (2 μM, 15 min at 37° C., Molecular Probes) was used for measuring the production of superoxide anion (Marchetti et al., 1996). Finally, the proportion of cells that had lost part of the chromosomal DNA (subdiploid cells) was determined with propidium iodide on cells fixed in ethanol (Nicoletti et al., 1991).
1. FIG. 1: culture of Jurkat cells in the presence of CH11 with (white histograms) or without (black histograms) RO5-4864, PK11195 or diazepam.

[1] = system: SHEP-control (neuroblastoma transfected with a control vector); assay: Cell viability (methylene blue test) with CH11 anti-FasR antibody, SHEP-control line; format: cell-based, human
Procedure: as §1, §2
(§3) Cell viability was measured by testing with methylene blue (Dimanche-Boitrel et al., 1992).
(§4) 2. FIG. 2: culture of the SHEP control lines (SHEP.control), of SHEP lines transfected with bcl2 (SHEP.Bcl2), and of SHEP lines transfected with bclXL (SHEP.BClXL), in the presence of CH11 with (black histograms) or without (grey histograms) RO5-4864. Evaluation of cell viability (test with methylene blue; percentage of cells on ordinate), as a function of the concentration of RO5-4864 (0, 100 μM or RO100, 200 μM or RO 200).

SHEP-bcl-2 = assay: Cell viability (methylene blue test) with CH11 anti-FasR antibody, SHEP-bcl-2 line; format: cell-based, human
Procedure: as §1, §2, §3, §4

SHEP bcl-XL = assay: Cell viability (methylene blue test) with CH11 anti-FasR antibody, SHEP bcl-XL line; format: cell-based, human
Procedure: as §1, §2, §3, §4

143N2 (osteosarcoma) = assay: Cell viability (methylene blue test) with CH11 anti-FasR antibody, 143N2 line; format: cell-based, human
Procedure: as §1, §2, §3
3. FIG. 3: culture of the 143N2 line in the presence of CH11 with (black histograms) or without (grey histograms) RO5-4864, PK11195 or diazepam. Evaluation of cell viability (test with methylene blue; percentage of cells on ordinate), as a function of the concentration of RO5-4864 (100 μM or RO 100, 200 μM or RO 200), PK11195 (50 μM or PK50, 80 μM or PK 80) and DIAZEPAM (50 μM or DIA50, 80 μM or DIA80).

SNB79 (glioblastoma) = assay: Cell viability (methylene blue test) with CH11 anti-FasR antibody, SNB79 line; format: cell-based, human
Procedure: as §1, §2, §3
4. FIG. 4: culture of the SNB79 line in the presence of CH11 with (•) or without (o) RO5-4864. Evaluation of cell viability (test with methylene blue; percentage of cells on the ordinate), as a function of the concentration (μM) of Ro5-4864.

[2] = system: SCLC61 small-cell bronchial carcinoma; assay: SCLC61 human tumour xenotransplanted in nude mice, tumour growth; format: in vivo, mouse
[3] = system: SCLC6 small-cell bronchial carcinoma; assay: SCLC6 human tumour xenotransplanted in nude mice, tumour growth; format: in vivo, mouse; settings: etoposide 12 mg/kg/day + ifosfamide 90 mg/kg/day D1 to D3 + RO5-4864 40 mg/kg/day D1 to D3, p<0.05

SMILES | potentiation of the apoptotic effect of the CH11 anti-FasR antibody (Jurkat (lymphoid T)) | proportion of subdiploid (apoptotic) cells (Jurkat (lymphoid T)) | reversal of resistance to the CH11 anti-FasR antibody [1] | reversal of resistance to the CH11 anti-FasR antibody (SHEP-bcl-2) | reversal of resistance to the CH11 anti-FasR antibody (SHEP bcl-XL) | reversal of resistance to the CH11 anti-FasR antibody (143N2 (osteosarcoma)) | reversal of resistance to the CH11 anti-FasR antibody (SNB79 (glioblastoma)) | tumour growth ([2]; RO5-4864 alone, 12 mg/kg/day s.c. D1 to D3) | antitumour effect of etoposide with concomitant RO5-4864 ([2]; etoposide 12 mg/kg/day i.p. D1 to D3 + RO5-4864 12 mg/kg/day s.c. D1 to D3, p<0.005) | antitumour effect of the chemotherapy with RO5-4864 [3]
CN1C(=O)CN=C(c2ccc(Cl)cc2)c2cc(Cl)ccc21 [RO5-4864, 4′-chlorodiazepam] | potentiate the apoptotic effect | 73% | reverses the resistance | reverses the resistance | reverses the resistance | reverses the resistance | reverses the resistance | not altered | increased | increased
CCC(C)N(C)C(=O)c1cc2ccccc2c(-c2ccccc2Cl)n1 (stereo not drawn) [PK11195] | potentiate the apoptotic effect | 25% | observed | only observed with diazepam and PK11195 on the line SHEP-control | only observed with diazepam and PK11195 on the line SHEP-control | only observed with diazepam and PK11195 on the line SHEP-control | only observed with diazepam and PK11195 on the line SHEP-control |  |  | 
CN1C(=O)CN=C(c2ccccc2)c2cc(Cl)ccc21 [diazepam] | potentiate the apoptotic effect | 20% | observed | only observed with diazepam and PK11195 on the line SHEP-control | only observed with diazepam and PK11195 on the line SHEP-control | only observed with diazepam and PK11195 on the line SHEP-control | only observed with diazepam and PK11195 on the line SHEP-control |  |  | 
